In patent US4218442A, “1-Epi-fortimicin A and derivatives” (Abbott Laboratories, priority 1979, dated 1980) one finds MIC data, which are given here for two molecules.

What all share (experiment): MIC, two-fold agar dilution, Mueller-Hinton agar
Common to all, as to assay type: cell-based
A general note: Agar dilution tests growth on a series of plates holding different concentrations.

In experiment [1] the test system is Klebsiella pneumoniae 10031. To be noted: read-out: minimum inhibitory concentration (MIC). The procedure:
(§1) The in vitro antibiotic activity is determined by a two-fold dilution test using Mueller-Hinton agar, 10 ml per Petri plate. The inoculum of approximately 1×10^5 of the indicated test organism is delivered by the Steer's replicator. The test is incubated at 37° C. for 24 hours.

Experiment [2] deals with Escherichia coli 76-2. To be noted: read-out: minimum inhibitory concentration (MIC). How it is done: as §1
Experiment [3] concerns Salmonella typhimurium Ed. #9. To be noted: Salmonella enterica, read-out: minimum inhibitory concentration (MIC). How it is done:
as §1

The test system of experiment [4] is Pseudomonas aeruginosa 27853. As to conditions: read-out: minimum inhibitory concentration (MIC). The procedure: as §1
The subject of experiment [5] is Proteus rettgeri U-6333. To be noted: Providencia rettgeri, read-out: minimum inhibitory concentration (MIC). How it is done: as §1
For experiment [6], the system named is Serratia marcescens 4003. To be noted: read-out: minimum inhibitory concentration (MIC). The procedure: as §1
Experiment [7] relates to Pseudomonas aeruginosa BMH #10. To be noted: read-out: minimum inhibitory concentration (MIC). The procedure: as §1
Experiment [8] relates to Proteus vulgaris JJ. To be noted: read-out: minimum inhibitory concentration (MIC). How it is done:
as §1

Experiment [9] has as its system Pseudomonas aeruginosa KY 8512. As to conditions: read-out: minimum inhibitory concentration (MIC). The procedure:
as §1

For experiment [10], the system named is Shigella sonnei 9290. To be noted: 37° C., 24 hours, read-out: minimum inhibitory concentration (MIC). The procedure: as §1
In experiment [11] the test system is Klebsiella pneumoniae KY 4262. As to conditions: read-out: minimum inhibitory concentration (MIC). How it is done:
as §1

Experiment [12] relates to Providencia stuartii 1577. As to conditions: read-out: minimum inhibitory concentration (MIC). How it is done:
as §1

Experiment [13] deals with Escherichia coli JUHL. To be noted: read-out: minimum inhibitory concentration (MIC). The procedure: as §1
For experiment [14], the system named is Pseudomonas aeruginosa 209. To be noted: read-out: minimum inhibitory concentration (MIC). How it is done: as §1
Experiment [15] relates to Staphylococcus aureus Smith. As to conditions: read-out: minimum inhibitory concentration (MIC). The procedure: as §1
In experiment [16] the test system is Enterobacter aerogenes 13048. To be noted: read-out: minimum inhibitory concentration (MIC). The procedure: as §1
Experiment [17] relates to Streptococcus faecalis 10541. As to conditions: read-out: minimum inhibitory concentration (MIC). How it is done: as §1
Experiment [18] concerns Pseudomonas aeruginosa KY 8516. To be noted: read-out: minimum inhibitory concentration (MIC). How it is done:
as §1

For experiment [19], the system named is Escherichia coli BL 3676(RES). As to conditions: read-out: minimum inhibitory concentration (MIC). How it is done:
as §1

Experiment [20] deals with Proteus mirabilis Fin #9. As to conditions: read-out: minimum inhibitory concentration (MIC). The procedure: as §1

Each structure is given as a SMILES string. Counter-ions that a name gives are not always drawn. Like-named read-outs stand apart in the source and are kept apart here.

On to `CO[C@H]1[C@@H](O)[C@@H](N)[C@@H](O[C@H]2O[C@H]([C@H](C)N)CC[C@H]2N)[C@H](O)[C@@H]1N(C)C(=O)CN` [Ex. 3, 1-Epi-fortimicin A tetrahydrochloride], for which the MIC in [1] (Klebsiella pneumoniae, 10031, 24 h) turned out to be 3.1 µg/mL; in experiment [2] (Escherichia coli, 762, 24 h), 6.2 µg/mL; in [3] (TYPHIMURIUM, 24 h), 3.1 µg/mL; in experiment [4] (Pseudomonas aeruginosa, 27853, 24 h), 50 µg/mL; in [5] (U6333, 24 h), 3.1 µg/mL; in [6] (Serratia marcescens, 4003, 24 h), 3.1 µg/mL. Also, the MIC in experiment [7] (Pseudomonas aeruginosa, 24 h) came out at 0.78 µg/mL; in [8] (Proteus vulgaris, 24 h), 12.5 µg/mL; in experiment [9] (Pseudomonas aeruginosa, KY8512, 24 h), 25 µg/mL; in experiment [10], 12.5 µg/mL; in experiment [11] (Klebsiella pneumoniae, KY4262, 24 h), 6.2 µg/mL; in [12] (Providencia stuartii, 1577, 24 h), 3.1 µg/mL. In addition, the MIC in experiment [13] (Escherichia coli, 24 h) is 12.5 µg/mL; in experiment [14] (Pseudomonas aeruginosa, 209, 24 h), 100 µg/mL; in experiment [15] (Staphylococcus aureus, 24 h), 1.56 µg/mL; in experiment [16] (Klebsiella aerogenes, 13048, 24 h), 6.2 µg/mL; in [17] (Enterococcus faecalis, 10541, 24 h), 100 µg/mL; in experiment [18] (Pseudomonas aeruginosa, KY8516, 24 h) it was 100 µg/mL. Also, the MIC was 50 µg/mL in [19] (Escherichia coli, 24 h) and 12.5 µg/mL in experiment [20] (Proteus mirabilis, 24 h).

Consider `C[C@H](N)[C@@H]1CC[C@@H](N)[C@@H](O[C@@H]2[C@H](N)[C@H](O)[C@H](O)[C@@H](N(C)C(=O)CN)[C@H]2O)O1` [Ex. 13, 1-Epi-3-O-demethylfortimicin A tetrahydrochloride], for which the MIC in experiment [1] (Klebsiella pneumoniae 10031, 37° C., 24 hours) is 3.1 µg/mL; in [2] (762, Escherichia coli 76-2, 37° C., 24 hours) it was 3.1 µg/mL; in [3] (Salmonella typhimurium Ed. #9, 37° C., 24 hours) it was 3.1 µg/mL; in [4] (Pseudomonas aeruginosa 27853, 37° C., 24 hours), 6.2 µg/mL; in [5] (U6333, Proteus rettgeri U-6333, 37° C., 24 hours), 3.1 µg/mL; in experiment [6] (Serratia marcescens 4003, 37° C., 24 hours), 3.1 µg/mL. In addition, the MIC in [7] (Pseudomonas aeruginosa BMH #10, 37° C., 24 hours) amounted to 0.78 µg/mL; in [8] (Proteus vulgaris JJ, 37° C., 24 hours), 3.1 µg/mL; in experiment [9] (KY8512, Pseudomonas aeruginosa KY 8512, 37° C., 24 hours), 6.2 µg/mL; in experiment [10] it was 12.5 µg/mL; in experiment [11] (KY4262, Klebsiella pneumoniae KY 4262, 37° C., 24 hours), 6.2 µg/mL; in experiment [12] (Providencia stuartii 1577, 37° C., 24 hours) it was 6.2 µg/mL. Also, the MIC in [13] (Escherichia coli JUHL, 37° C., 24 hours) turned out to be 6.2 µg/mL; in experiment [14] (Pseudomonas aeruginosa 209, 37° C., 24 hours) it was 100 µg/mL; in experiment [15] (Staphylococcus aureus Smith, 37° C., 24 hours) it was 0.78 µg/mL; in experiment [16] (Klebsiella aerogenes, Enterobacter aerogenes 13048, 37° C., 24 hours) it was 3.1 µg/mL; in [17] (Enterococcus faecalis, Streptococcus faecalis 10541, 37° C., 24 hours), 50 µg/mL; in experiment [18] (KY8516, Pseudomonas aeruginosa KY 8516, 37° C., 24 hours) it was 25 µg/mL. Also, the MIC in experiment [19] (Escherichia coli BL 3676(RES), 37° C., 24 hours) is 25 µg/mL; in [20] (Proteus mirabilis Fin #9, 37° C., 24 hours) it was 6.2 µg/mL.
